One assay deals with T1, S. cerevisiae H^+-ATPase (Saccharomyces cerevisiae, UniProt P05030).
T1 construct: transformed with the full-length cDNA of the S. cerevisiae plasma membrane H^+-ATPase isoform PMA1; made in house; host or cells: S. cerevisiae RS72
The assay is described as follows: Colorimetric ATPase assay (ATP hydrolysis), S. cerevisiae plasma membranes. It is filed as biochemical. The conditions noted are these: initial hit compounds, Table 1. The text has this:
To investigate the H^+-ATPase inhibitory effect of the compounds we isolated plasma membranes containing H^+-ATPase from S. cerevisiae and C. albicans cells.[15] Plasma membranes isolated from pig kidney as well as endoplasmic reticulum membranes from rabbit hind leg muscle were used to counter-screen compounds for activity against mammalian Na^+,K^+-ATPase and Ca^2+-ATPase, respectively. Prior to their use, fungal plasma membrane batches were validated by determining the maximum ATP hydrolysis activity, the pH optimum of the ATPase activity, and the sensitivity to inhibition by orthovanadate. ATPase activity was determined by a colorimetric assay that measures the amount of inorganic phosphate liberated over time, as described in Kjellerup et al., 2017.[15] Table 2, Table 3, Table 4 list the IC50 values obtained by measuring the concentration dependence of the ATPase activity for the fifteen carbazole compounds with each of the four membrane preparations.
Pma1-containing plasma membranes were prepared from S. cerevisiae RS72 yeast cells that had been transformed with the full-length cDNA of the S. cerevisiae plasma membrane H^+-ATPase isoform PMA1 under control of the PMA1 promoter, using the same procedure as described in Kongstad et al., 2014^1. For the preparation of C. albicans membranes, a 100 ml overnight culture grown in YPD (10 g/L yeast extract (BD, Sparks, MD), 20 g/L Bacto peptone (BD), 20 g/L D-(+)-glucose) was transferred to 1 L YPD and grown for a further 7 h at RT with agitation (150 rpm), followed by cell harvesting and subsequent membrane preparation using the same procedure as described in Kongstad et al., 2014^1. […] Rabbit sarcoplasmic reticulum membranes containing Sarco/Endoplasmic Reticulum Ca^2+ ATPase (SERCA) were kindly provided by Dr. Claus E. Olesen and Dr. Jesper V. Møller, Aarhus University and prepared as described in Andersen et al., 1985^2. Pig kidney Na^+,K^+-ATPase was kindly provided by Dr. Natalya Fedosova, Aarhus University and prepared as described in Klodos et al., 2002^3.
The compound libraries were purchased from Enamine Ltd, Ukraine and Chembridge Corp, USA. ATPase activity was determined by measuring the amount of liberated phosphate from ATP hydrolysis. […] Reactions were initiated by the addition of Na-ATP to a final concentration of 2.5 mM (Pma1 and Na^+,K^+-ATPase) or 5 mM (SERCA), followed by 30 minutes incubation at 30 °C. The amount of liberated phosphate was determined colorimetrically after addition of STOP solution (mixture of L-ascorbic acid, ammonium heptamolybdate tetrahydrate, and HCl to give final concentrations of 65 mM, 2.2 mM, and 189 mM, respectively) with 5 minutes incubation at room temperature (RT) followed by addition of arsenite solution (mixture of NaAsO2, sodium citrate dihydrate, and acetic acid to give final concentrations of 3.1 mM, 28 mM, and 141 mM, respectively). Absorption was measured at 860 nm after an additional 30 minutes incubation at RT.

In another assay the test system is C. albicans (ATCC 90028). The assay is described as follows: Fungal growth inhibition, library hits. Type of assay: cell-based. Here is the method: (§1) Compound hits from the library screening were evaluated against baker yeast S. cerevisiae and C. albicans (ATCC 90028). The minimum inhibitory concentration (MIC) was defined as the lowest concentration inhibiting visual growth of the microorganism and this was determined in triplicate. Standard errors were typically less than 5%. MICs for synthesized compounds were determined on the following fungal isolates: Saccharomyces cerevisiae (ATCC 9763), Candida albicans (SC5314), Candida krusei (ATCC 6258), Candida glabrata (ATCC 90030), Aspergillus flavus (ATCC MYA-1005) and Aspergillus fumigatus (ATCC 13073), which were purchased from American Type Culture Collection, and C. glabrata strain Cg003, which was kindly provided by Julius Subik, Comenius University in Bratislava, Slovak Republic. Cg003 is a clinical isolate, characterized to be resistant to fluconazole and itraconazole due to overexpression of the multidrug resistance efflux pumps Cdr1p and Cdr2p^5. The fungal growth assay was performed as described in Kjellerup et al., 2017^6.

Assay [1] has as its system S. cerevisiae. Kind of assay: Fungal growth inhibition, library hits. Type of assay: cell-based. The conditions noted are these: Saccharomyces cerevisiae, baker yeast. Here is the method:
as §1

The test system of another assay is C. albicans cells. The assay is described as follows: Intracellular ATP determination. Type of assay: cell-based. To be noted: compound at 20 µM, 30 minutes, mean ± SEM n = 5. The text has this:
(§2) It was subsequently evaluated whether or not the carbazoles were able to prevent extracellular acidification of the surrounding media by blocking the pumping activity of the H^+-ATPase within fungal cells.[15] […] The H^+-ATPase requires ATP to transport protons out of fungal cells. Consequently, a decrease in intracellular ATP (iATP) levels will indirectly affect H^+-ATPase activity. […] In all cases, iATP levels were […] in C. albicans cells exposed to carbazoles compared to the untreated control. […] This implies that the carbazoles need to pass the fungal membrane to inhibit the H^+-ATPase and 7, 18 and 19 may have reduced membrane permeability.
C. albicans cells were transferred to 3 ml of YPD media and grown overnight at 30 °C and 150 rpm. The cells were pelleted at 2000 × g for 2 min. and washed in PBS (Sigma-Aldrich, catalog number 8537) twice before re-suspension to an OD600 of 0.1. Cell suspension (98 µL) and 2 µl compound in DMSO were incubated for 30 minutes at RT. Forty microliters of this suspension was then transferred to a black 96-well plate containing 40 µl BacTiterGlo reagent (Promega, Madison, WI) and the plate was incubated for 15 minutes in the dark at room temperature. Luminescence was read on a SpectraMax X5 (Molecular Devices, Sunnyvale, CA) plate reader with 10 s shake and 0.5 s integration time. A standard curve containing 10, 100 and 1000 nM ATP was prepared for every experiment.

The test system of the next assay is C. albicans. Kind of assay: Extracellular acidification assay. Type of assay: cell-based. To be noted: Candida albicans, mean ± SEM n = 3.
From the text: as §2
(§3) The ability of S. cerevisiae and C. albicans to acidify the media upon glucose addition was evaluated using the pH sensor dextran (40,000MW)-fluorescein-isothiocyanate as described in Kjellerup et al., 2017^6. Briefly, the cells was starved overnight in 50 mM KCl, pH 6.7 at 4 °C. The cell suspension (Final OD600 of 0.19) was mixed with 1.3 µg/ml dextran (40,000MW)-fluorescein-isothiocyanate, 1.5 % DMSO containing inhibitors and the assay initiated with the addition of 2 % D-(+)-glucose. The rate of media acidification was calculated based on the slope of the fluorescent drop in the first 12 minutes after glucose addition.

Assay [2] deals with S. cerevisiae. The assay is described as follows: Extracellular acidification assay. It is filed as cell-based. The conditions noted are these: Saccharomyces cerevisiae, mean ± SEM n = 3.
From the text: as §2, §3

The values that follow come from PMC5609566, “Elucidation of antimicrobial activity and mechanism of action by N-substituted carbazole derivatives” (Bioorganic & Medicinal Chemistry Letters, 2017).

Values after ≈ are worked out from the molar mass of the structure shown. Some results are limits rather than exact numbers.

T1 sequence (P05030 whole entry, canonical isoform): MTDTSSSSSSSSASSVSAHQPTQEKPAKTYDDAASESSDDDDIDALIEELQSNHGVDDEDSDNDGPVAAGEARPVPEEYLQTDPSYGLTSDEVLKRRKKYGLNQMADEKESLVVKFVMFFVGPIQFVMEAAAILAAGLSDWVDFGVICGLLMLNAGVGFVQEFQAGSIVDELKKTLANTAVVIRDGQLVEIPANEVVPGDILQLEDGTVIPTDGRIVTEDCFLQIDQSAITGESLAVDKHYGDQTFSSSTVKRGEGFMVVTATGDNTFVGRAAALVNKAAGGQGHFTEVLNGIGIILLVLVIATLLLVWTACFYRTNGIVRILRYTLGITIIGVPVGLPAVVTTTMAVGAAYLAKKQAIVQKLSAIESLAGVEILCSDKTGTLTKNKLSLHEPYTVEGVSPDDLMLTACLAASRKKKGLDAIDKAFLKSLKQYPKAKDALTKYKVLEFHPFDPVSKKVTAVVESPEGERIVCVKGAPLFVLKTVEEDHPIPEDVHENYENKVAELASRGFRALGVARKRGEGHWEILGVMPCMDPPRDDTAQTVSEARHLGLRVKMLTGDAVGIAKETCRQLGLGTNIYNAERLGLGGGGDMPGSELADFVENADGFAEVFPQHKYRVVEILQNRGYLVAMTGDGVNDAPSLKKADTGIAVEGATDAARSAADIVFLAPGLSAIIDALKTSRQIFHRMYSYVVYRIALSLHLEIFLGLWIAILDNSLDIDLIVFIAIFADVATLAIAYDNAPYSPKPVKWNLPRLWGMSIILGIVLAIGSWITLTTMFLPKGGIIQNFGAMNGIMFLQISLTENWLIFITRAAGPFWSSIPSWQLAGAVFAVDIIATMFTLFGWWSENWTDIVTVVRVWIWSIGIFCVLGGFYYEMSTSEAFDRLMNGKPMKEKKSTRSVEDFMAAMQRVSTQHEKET

On to `Oc1ccccc1Cn1c2ccccc2c2ccccc21` [Compound 3], for which, at S. cerevisiae H^+-ATPase, 9.7 ± 0.6 µM corresponded to half-maximal inhibition (IC50). Moreover, the minimum inhibitory concentration (MIC) came to 100 µM (≈ 27.3 µg/mL) in the assay with C. albicans (ATCC 90028) (ATCC 90028, library hits) and 50 µM (≈ 13.7 µg/mL) against S. cerevisiae [1].
The matching figures for `OC(CN1CCCCCC1)Cn1c2ccccc2c2ccccc21` (stereo not shown) [Compound 1]: 18.8 ± 7.3 µM, over 200 µM and over 200 µM.
Take `OC(CN1CCCC1)Cn1c2ccc(Cl)cc2c2cc(Cl)ccc21` (stereo not shown) [Compound 4]: half-maximal inhibition against S. cerevisiae H^+-ATPase (IC50) required 17.3 ± 5.5 µM. The MIC in the assay on C. albicans (ATCC 90028) (ATCC 90028, library hits) is 30 µM (≈ 10.9 µg/mL); in the assay with C. albicans (ATCC 90028) (Candida albicans, ATCC90028, ATCC 90028, library hits) it was at least 30 µM; in the assay with S. cerevisiae [1] it was 10 µM (≈ 3.63 µg/mL).
Turning to `CC(C)CCOCC(O)Cn1c2ccccc2c2ccccc21` (stereo not shown) [Compound 2], at S. cerevisiae H^+-ATPase, half-maximal inhibition (IC50) required 5.5 ± 0.7 µM. The minimum inhibitory concentration (MIC) was over 200 µM against C. albicans (ATCC 90028) (ATCC 90028, library hits) and 50 µM (≈ 15.6 µg/mL) against S. cerevisiae [1].
Consider `C[C@@H](c1ncncc1F)[C@](O)(Cn1cncn1)c1ccc(F)cc1F` [Voriconazole, reference compound], for which, in the assay with C. albicans cells, the iATP was 37 ± 19 nM. Further, the IC50 in the assay with C. albicans and in the assay with S. cerevisiae [2] was over 75 µM each time.

In general, IC50 refers to the concentration that inhibits the measured activity by half. As usually defined, the MIC is the lowest concentration found to suppress growth. Lower therefore signals a more susceptible organism.
